In US8993638B2, “Brominated nitroalkanol compositions and their use as biocides” (Dow Global Technologies LLC, priority 2009, dated 2015):

Key:
[1] = test system: oil field isolated anaerobic SRB consortium; assay: Biocidal efficacy (MBC) against SRB, 40° C. for 24 hour; assay type: cell-based, sulfate reducing bacteria (SRB); conditions: alone or in the combination, minimum tested biocide concentration for bacteria kill, 10^6 to 10^7 CFU/mL
Method: The synergy indexes reported in the following examples are calculated using the following equation: Synergy Index=Ca/CA+Cb/CB where Ca: Concentration of biocide A required to achieve a certain level or complete bacterial kill when used in combination; CA: Concentration of biocide A required to achieve a certain level or complete bacterial kill when used alone; Cb: Concentration of biocide B required to achieve a certain level or complete bacterial kill when used in combination; and CB: Concentration of biocide B required to achieve a certain level or complete bacterial kill when used alone. A synergy index (SI) of 1 indicates additivity, a synergy index of less than 1 indicates synergy, and a synergy index greater than 1 indicates antagonism. Various methods known to those skilled in the art can be used for evaluating biocidal efficacy. In the examples below, aliquots of the biocide-treated samples are removed at predetermined time points and the biocide concentration required to achieve a certain level or complete bacterial kill is determined by culture-based methods including serial dilution. […] After the mixtures are incubated at 40° C. for 24 hour, the biocidal efficacy is determined by minimum tested biocide concentration for bacteria kill in the aliquots (MBC). […]

oilfield SRB consortium = assay: Biocidal efficacy against SRB under high temperature and sulfide-rich conditions; assay type: cell-based, sulfate reducing bacteria (SRB); conditions: alone or in the combination, 80° C. anaerobic, daily challenge with SRB and 10 ppm sulfide
Method: The synergy indexes reported in the following examples are calculated using the following equation: Synergy Index=Ca/CA+Cb/CB where Ca: Concentration of biocide A required to achieve a certain level or complete bacterial kill when used in combination; CA: Concentration of biocide A required to achieve a certain level or complete bacterial kill when used alone; Cb: Concentration of biocide B required to achieve a certain level or complete bacterial kill when used in combination; and CB: Concentration of biocide B required to achieve a certain level or complete bacterial kill when used alone. […] In the examples below, aliquots of the biocide-treated samples are removed at predetermined time points and the biocide concentration required to achieve a certain level or complete bacterial kill is determined by culture-based methods including serial dilution. […] After incubation for 2 h the biocidal efficacy is evaluated against the field SRB consortium at 40° C. for 2 h. After incubation for 7 days the biocidal efficacy are evaluated again for 24 h. The biocidal efficacy is determined by the lowest testing biocide dosage concentration required to achieve a 3 log 10 or greater bacterial reduction, of both 2 hours and 7 days heat and SRB-sulfide exposure. Synergy Index is then calculated. […]

| Compound | MBC (active ppm) TA ([1]; concentration of TA) | Dosage required for 3log10 bacterial reduction of both 2 h and 7 day heat and SRB-sulfide exposure (active ppm) TA (oilfield SRB consortium; concentration of TA) | MBC (active ppm) BNPD ([1]; concentration of BNPD) | Dosage required for 3log10 bacterial reduction of both 2 h and 7 day heat and SRB-sulfide exposure (active ppm) BNPD (oilfield SRB consortium; concentration of BNPD) |
| --- | --- | --- | --- | --- |
| O=[N+]([O-])C(CO)(CO)CO [0:1, tris(hydroxymethyl)nitromethane] | 36.5 active ppm | 360.0 active ppm | – | – |
| O=[N+]([O-])C(Br)(CO)CO [1:0, 2-bromo-2-nitro-1,3-propanediol] | – | – | 3.5 active ppm | 180.0 active ppm |
